Source: paper PMC7413254 (Nature Communications, 2020)
Like-named read-outs stand apart in the source and are kept apart here.

How the values were obtained:
[1] = biological target: T1, PfCRT^3D7 (Plasmodium falciparum, UniProt Q8IBZ9); assay: cell-based; settings: mean ± SEM, n = 5, SEM
Description: (§1) The characterisation of [^3H]VF-6 transport via 23 different field and laboratory-derived isoforms of PfCRT was undertaken with oocytes two days post-cRNA-injection (Figs. 3a–j, 4; Supplementary Fig. 2). The oocytes were injected with 25 nL of ND96 buffer (pH 5.5) supplemented with [^3H]VF-6 and unlabelled VF-6 to achieve estimated intracellular concentrations of 1.4 and 200 μM, respectively. Ten oocytes that had resealed at the injection site were transferred to a 5 mL polystyrene round bottom tube (In Vitro Technologies) and washed with 3.5 mL of ND96 buffer before being transferred to separate wells of a white 96-well plate (PerkinElmer). This treatment served to establish the amount of radioactivity within the oocytes immediately prior to the commencement of the transport assay. Another 10 resealed oocytes were transferred to a 5 mL tube and washed with 3.5 mL of ND96 buffer. […] The assay was terminated by removing the reaction buffer with a pipette and washing the oocytes twice with 3.5 mL of ice-cold ND96 buffer. Each oocyte was transferred to a separate well of a white 96-well plate. The oocytes were lysed by the addition of 20 μL of 10% (w/v) SDS and overnight incubation at room temperature. The lysed oocyte was then combined with 150 μL of MicroScint-40 microscintillant (PerkinElmer), the plate covered with a TopSeal-A (PerkinElmer), and the radioactivity measured with a MicroBeta^2 microplate liquid scintillation analyser (PerkinElmer). VF-6 transport was calculated by subtracting the amount of radioactivity (measured in counts per minute) present within the oocytes at the end of the incubation from that measured in the oocytes sampled immediately before the commencement of the assay. The pH-dependence of transport (Fig. 3c) was determined by injecting the oocytes with [^3H]VF-6 suspended in 25 nL ND96 buffer adjusted to pH 5.0, 5.5, 6.0 or 7.0, which corresponded to the injection of 2.5–250 fmol of H^+. The dependence of [^3H]VF-6 transport on Na^+ or Cl^− was examined by injecting the oocytes with [^3H]VF-6 suspended in the control ND96 buffer (pH 5.5) or a version of this buffer that lacked either Na^+ or Cl^− (Supplementary Fig. 2). […] The dependence of peptide transport on Ca^2+ was determined by injecting the oocytes with [^3H]VF-6 suspended in ND96 buffers that contained different concentrations of Ca^2+ (0–5 mM; Supplementary Fig. 2). […] The dependence of PfCRT-mediated transport on the membrane potential was examined by using (1) Na^+ ionophore III in conjunction with the Na^+ gradients listed in Supplementary Data 7 and (2) Cl^− ionophore III in conjunction with the Cl^− gradients listed in Supplementary Data 7 to clamp the membrane potential of the oocyte from −80 to +80 mV. […] The kinetic parameters for VF-6 transport via different isoforms of PfCRT (Figs. 3e and 4a) were determined in SigmaPlot Windows Version 11.0 by a least-squares fit of the Michaelis–Menten equation to the data.
(§2) A subset of assays measured the ability of solutes known to interact with PfCRT to either cis-inhibit, trans-inhibit or trans-stimulate [^3H]VF-6 transport. These experiments involved adding these solutes to either the cis- or trans-side of the membrane relative to [^3H]VF-6. […] At least five independent experiments were performed (on different days and using oocytes from different frogs), and within each experiment measurements were made from ten oocytes per treatment.

[2] = biological target: T2, PfCRT^Dd2 (Plasmodium falciparum, UniProt Q9N623, A220S/I356T/K76T/M74I/N326S/N75E/Q271E/R371I); assay: cell-based; settings: mean ± SEM, n = 5, SEM
Description: as §1, §2

[3] = biological target: T3, PfCRT^Ecu1110 (Plasmodium falciparum, UniProt Q9N623, A220S/I356L/K76T/N326D); assay: cell-based; settings: mean ± SEM, n = 5, SEM
Description: as §1, §2

[4] = biological target: T2, PfCRT^Dd2; assay: [3H]CQ uptake into Xenopus oocytes, cis-inhibition by unlabelled solute; type: cell-based; settings: PfCRTDd2 oocytes, background [3H]CQ accumulation subtracted, normalised to oocyte type control
Summary of the method: (§3)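 ND96, pH 5.5, 1.5 h, 27.5 °C; uptake direction acidic outside → oocyte cytosol, mimicking efflux from digestive vacuole. Ice-cold wash stop, 10% SDS lysis, scintillation counting. Ten oocytes/treatment, ≥4 independent experiments.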

[5] = biological target: T3, PfCRT^Ecu1110; assay: as above; type: cell-based; settings: for PfCRT-mediated [3H]CQ transport, cis-inhibition (% PfCRTEcu1110 control): PfCRTEcu1110 oocytes, background [3H]CQ accumulation subtracted, normalised to oocyte type control; for [3H]CQ transport (% PfCRTEcu1110 control), cis-inhibition, PfCRTEcu1110: PfCRT-mediated component (background subtracted), sheet title says normalised to PfCRTDd2 control, mean ± SEM, SEM
Summary of the method: as §3

[6] = system: PfCRT; assay: Potential co-substrates tested for influx of VF-6 via PfCRT into the oocyte; type: cell-based, Plasmodium falciparum; set-up: key: X: Compounds that have been tested as potential co-substrates but are not required for influx of VF-6 via PfCRT into the oocyte
[7] = biological target: T1, PfCRT^3D7; assay: cell-based; type: cell-based; settings: PfCRT3D7 oocytes, normalised to oocyte type control
Summary of the method: (§4)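 Oocytes (ten per treatment, ≥4 independent frogs/days) were preloaded by injecting VF-6 in 25 nL ND96 at pH 5.0, 5.5, 6.0 or 7.0, or Na^+-free choline buffer, then uptake run 1.5 h, 27.5 °C, ND96 pH 5.5 by default. Internal concentrations assumed ~400 nL oocyte volume.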

[8] = biological target: T2, PfCRT^Dd2; assay: cell-based; type: cell-based; settings: for PfCRT-mediated [3H]CQ transport, trans-stimulation (% PfCRTDd2 control): PfCRTDd2 oocytes, normalised to oocyte type control; for [3H]CQ transport (% PfCRTDd2 control), trans-stimulation, PfCRTDd2: PfCRT-mediated component (background subtracted), mean ± SEM, SEM
Summary of the method: as §4

[9] = biological target: T3, PfCRT^Ecu1110; assay: cell-based; type: cell-based; settings: for PfCRT-mediated [3H]CQ transport, trans-stimulation (% PfCRTEcu1110 control): PfCRTEcu1110 oocytes, normalised to oocyte type control; for [3H]CQ transport (% PfCRTDd2 control), trans-stimulation, PfCRTEcu1110: PfCRT-mediated component (background subtracted), sheet title says normalised to PfCRTDd2 control, mean ± SEM, SEM
Summary of the method: as §4

[10] = [test solute]i = 5 mM (intracellular)
[11] = [test solute]i = 45 mM (intracellular; 30 mM for some solutes due to solubility)
[12] = [test solute]i = 5 mM (injected)
[13] = [test solute]i = 45 mM (30 mM for some solutes due to solubility)

T1 sequence (Q8IBZ9 59-398): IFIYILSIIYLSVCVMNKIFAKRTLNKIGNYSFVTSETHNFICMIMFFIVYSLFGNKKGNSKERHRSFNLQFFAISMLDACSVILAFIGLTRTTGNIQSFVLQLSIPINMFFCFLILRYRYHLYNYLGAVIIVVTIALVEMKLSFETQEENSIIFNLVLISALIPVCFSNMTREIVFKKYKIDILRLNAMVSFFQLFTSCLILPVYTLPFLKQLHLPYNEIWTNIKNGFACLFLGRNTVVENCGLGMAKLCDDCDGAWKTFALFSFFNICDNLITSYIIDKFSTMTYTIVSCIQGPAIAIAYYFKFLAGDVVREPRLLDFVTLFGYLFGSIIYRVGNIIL
T3 sequence (Q9N623 whole entry A220S/I356L/K76T/N326D): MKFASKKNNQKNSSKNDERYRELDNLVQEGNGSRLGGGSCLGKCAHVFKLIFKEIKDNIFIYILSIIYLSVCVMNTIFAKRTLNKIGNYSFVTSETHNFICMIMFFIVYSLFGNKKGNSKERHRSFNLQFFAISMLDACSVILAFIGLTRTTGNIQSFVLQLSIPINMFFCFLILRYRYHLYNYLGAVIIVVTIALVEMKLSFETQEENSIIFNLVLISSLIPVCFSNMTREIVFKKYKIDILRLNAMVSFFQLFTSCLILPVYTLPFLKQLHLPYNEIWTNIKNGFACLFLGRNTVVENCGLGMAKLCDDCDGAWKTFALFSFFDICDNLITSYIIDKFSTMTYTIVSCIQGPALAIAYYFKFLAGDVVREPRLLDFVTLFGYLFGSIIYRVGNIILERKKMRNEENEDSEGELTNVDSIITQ
T2 sequence (Q9N623 whole entry A220S/I356T/K76T/M74I/N326S/N75E/Q271E/R371I): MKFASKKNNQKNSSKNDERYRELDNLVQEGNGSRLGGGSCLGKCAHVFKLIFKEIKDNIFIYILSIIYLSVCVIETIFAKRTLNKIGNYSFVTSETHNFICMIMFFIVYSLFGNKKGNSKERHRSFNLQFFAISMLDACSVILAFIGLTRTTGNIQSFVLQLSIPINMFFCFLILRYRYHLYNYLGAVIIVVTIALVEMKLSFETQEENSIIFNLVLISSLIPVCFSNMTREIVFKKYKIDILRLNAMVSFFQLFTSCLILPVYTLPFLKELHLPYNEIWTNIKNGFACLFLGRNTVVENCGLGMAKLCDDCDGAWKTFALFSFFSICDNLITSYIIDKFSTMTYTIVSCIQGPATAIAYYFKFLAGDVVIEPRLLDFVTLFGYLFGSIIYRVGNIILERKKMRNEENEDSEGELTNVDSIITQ

Compound	PfCRT-mediated [3H]CQ transport, cis-inhibition (% PfCRTDd2 control) ([4]; [test solute] = 0.5 mM)	PfCRT-mediated [3H]CQ transport, cis-inhibition (% PfCRTDd2 control) ([4]; [test solute] = 1 mM)	PfCRT-mediated [3H]CQ transport, cis-inhibition (% PfCRTDd2 control) ([4]; [test solute] = 2 mM)	PfCRT-mediated [3H]CQ transport, cis-inhibition (% PfCRTEcu1110 control) ([5]; [test solute] = 0.5 mM)	PfCRT-mediated [3H]CQ transport, cis-inhibition (% PfCRTEcu1110 control) ([5]; [test solute] = 1 mM)	PfCRT-mediated [3H]CQ transport, cis-inhibition (% PfCRTEcu1110 control) ([5]; [test solute] = 2 mM)	[3H]CQ transport (% PfCRTEcu1110 control), cis-inhibition, PfCRTEcu1110 ([5]; [test solute] = 2 mM)	Tested as potential co-substrate but not required for influx of VF-6 via PfCRT into the oocyte [6]	PfCRT-mediated [3H]CQ transport, trans-stimulation (% PfCRT3D7 control) [7, 10]	PfCRT-mediated [3H]CQ transport, trans-stimulation (% PfCRT3D7 control) [7, 11]	PfCRT-mediated [3H]CQ transport, trans-stimulation (% PfCRTDd2 control) [8, 10]	PfCRT-mediated [3H]CQ transport, trans-stimulation (% PfCRTDd2 control) [8, 11]	[3H]CQ transport (% PfCRTDd2 control), trans-stimulation, PfCRTDd2 [8, 12]	[3H]CQ transport (% PfCRTDd2 control), trans-stimulation, PfCRTDd2 [8, 13]	PfCRT-mediated [3H]CQ transport, trans-stimulation (% PfCRTEcu1110 control) [9, 10]	PfCRT-mediated [3H]CQ transport, trans-stimulation (% PfCRTEcu1110 control) [9, 11]	[3H]CQ transport (% PfCRTDd2 control), trans-stimulation, PfCRTEcu1110 [9, 12]	[3H]CQ transport (% PfCRTDd2 control), trans-stimulation, PfCRTEcu1110 [9, 13]	other results
CN(C)CCC(c1ccc(Cl)cc1)c1ccccn1 (stereo not shown) [CP, chlorpheniramine, reference compound]	–	–	–	–	–	–	–	–	–	–	–	–	–	–	–	–	–	–	IC50 ([1]; drug on opposite side to [3H]VF-6, read-out: Trans-inhibition IC50 of [3H]VF-6 transport, PfCRT3D7): 12 ± 0.7 µM; IC50 ([1]; drug on same side as [3H]VF-6, read-out: Cis-inhibition IC50 of [3H]VF-6 transport, PfCRT3D7): 9.8 ± 0.5 µM; IC50 ([2]; Cis-inhibition IC50 of [3H]VF-6 transport, PfCRTDd2, drug on same side as [3H]VF-6): 5 ± 1.1 µM; IC50 ([2]; Trans-inhibition IC50 of [3H]VF-6 transport, PfCRTDd2, drug on opposite side to [3H]VF-6): 8.8 ± 0.3 µM; IC50 ([3]; Cis-inhibition IC50 of [3H]VF-6 transport, PfCRTEcu1110, drug on same side as [3H]VF-6): 6.2 ± 0.3 µM; IC50 ([3]; Trans-inhibition IC50 of [3H]VF-6 transport, PfCRTEcu1110, drug on opposite side to [3H]VF-6): 7.2 ± 0.2 µM
DPVNF [DF-5]	38 ± 3.1 % PfCRTDd2 control	27 ± 0.9 % PfCRTDd2 control	15 ± 0.5 % PfCRTDd2 control	40 ± 2.1 % PfCRTEcu1110 control	32 ± 1.6 % PfCRTEcu1110 control	21 ± 1.0 % PfCRTEcu1110 control	7.0 ± 0.1 % PfCRTEcu1110 control	X	128 ± 3.1 % PfCRT3D7 control	158 ± 4.2 % PfCRT3D7 control	101 ± 3.5 % PfCRTDd2 control	113 ± 1.2 % PfCRTDd2 control	101 ± 3.5 % PfCRTDd2 control	113 ± 1.2 % PfCRTDd2 control	120 ± 2.4 % PfCRTEcu1110 control	128 ± 2.9 % PfCRTEcu1110 control	36 ± 1.3 % PfCRTEcu1110 control	39 ± 1.8 % PfCRTEcu1110 control	–
VDPVN [VN-5]	42 ± 2.7 % PfCRTDd2 control	30 ± 3.0 % PfCRTDd2 control	19 ± 0.3 % PfCRTDd2 control	52 ± 1.8 % PfCRTEcu1110 control	38 ± 2.6 % PfCRTEcu1110 control	27 ± 0.5 % PfCRTEcu1110 control	9.0 ± 0.2 % PfCRTEcu1110 control	X	131 ± 4.6 % PfCRT3D7 control	181 ± 5.7 % PfCRT3D7 control	101 ± 3.5 % PfCRTDd2 control	112 ± 1.4 % PfCRTDd2 control	101 ± 3.5 % PfCRTDd2 control	112 ± 1.4 % PfCRTDd2 control	128 ± 3.6 % PfCRTEcu1110 control	136 ± 3.5 % PfCRTEcu1110 control	39 ± 1.5 % PfCRTEcu1110 control	41 ± 1.9 % PfCRTEcu1110 control	[3H]CQ transport (% PfCRTEcu1110 control), cis-inhibition, PfCRTEcu1110 ([5]; [test solute] = 0.5 mM): 16 ± 0.4 % PfCRTEcu1110 control
